Assay results published in patent US20080200439A1, “Methods and compositions for modulating BK channel activity and vasodilation” (University of Tennessee Research Foundation, priority 2006, published 2008).

Test system: pressurized cerebral arteries from β1-knockout (KCNMB1-knockout) mice
Assay: Artery diameter measurement, pressurized cerebral arteries from BK β1-knockout mice
Design: species or system mouse
Settings: 55 nM
Experimental: Artery Diameter Measurement. Middle cerebral arteries were isolated from adult male Sprague-Dawley rats (=250 g) or 8- to 12-week-old β1-knockout and C57BL/6 control mice. Rats and mice were decapitated using a guillotine and sharp scissors, respectively. These procedures were approved by the Institutional Animal Care and Use Committee from The University of Tennessee Health Science Center, an AMLAC-accredited institution. Pressurization of arteries was performed as described (Liu et al., 2004). Endothelium was removed by passing an air bubble into the vessel lumen for 90 sec. Diameter changes were monitored through an inverted microscope (Nikon Eclipse TS100, Nikon Corp., Tokyo, Japan), recorded on camera (Sanyo VCB-3512T, Sanyo Electric Corp., Japan), and transferred to a computer. Diameter data were acquired and analyzed using IonWizard 4.4 software (IonOptics Corp., Milton, Mass., United States of America). […]
Data Analysis. […] Arterial diameter and electrophysiological data were analyzed with IonWizard 4.4 (IonOptics Corp., Milton, Mass., United States of America) and pCLAMP 8.0 (Molecular Devices, Union City, Calif., United States of America). […]
To determine the impact of LC targeting of BK β1-subunits on organ function, LC action on the arterial diameter of pressurized cerebral arteries was evaluated from β1-knockout vs. wt C57BU6 mice (controls). […]

iberiotoxin (QFTDVDCSVSKECWSVCKDLFGVDRGKCMGKKCRCYQ; UniProt P24663 1-37, looked up) [Ibtx, reference compound]
Decrease in diameter: −2.25±0.44%
